Measurements from patent publication US10736923B2, “Methods and compositions for generating chondrocyte lineage cells and/or cartilage like tissue” (UNIVERSITY HEALTH NETWORK, priority 2013, dated 2020).

What was measured:
Type in all cases: cell-based, human
[1] = test system: primitive streak-like mesoderm population; test: Paraxial mesoderm specification in monolayer culture, flow cytometry of cell surface markers
Protocol: FIG. 2. Characterization of paraxial mesoderm derived from hPSCs. Flow cytometric analysis of day 5 mesoderm treated with no additional factors (0 DM, no FGF), FGF, 4 μM DM, or 4 μM DM+FGF. Day 5 profiles depict KDR and PDGFRa expression, a double-positive population (gated) indicates mesoderm that has cardiac potential (20). Treatment with FGF results in less PDGFRa expression on day 5. (B) Expression of cell surface markers CD73, CD105, and PDGFR-beta on mesoderm populations on day 15 of differentiation. […] Experimental cell treatments during day 4 to day 6 include the combination of Dorsomorphin, bFGF, TGFbeta inhibitor (SB431542) in the presence or absence of the wnt pathway inhibitor IWP2. Flow cytometric analyses of CD73 and CD105, on day 15 mesoderm populations derived as indicated. (D) Gene expression analyses of day 15 mesoderm populations derived in indicated factors. Nkx2.5 is a cardiac transcription factor, Meox1 and Nkx3.2 are paraxial mesoderm and somite transcription factors. (E) Micrographs depicting 1 day old micromasses and 1 week old micromasses derived from day 15 mesoderm populations as indicated. (F) Flow cytometric analysis of cardiac troponin T (cTnT) expression in 1 week old micromasses derived from day 15 mesoderms as indicated. […] To generate chondrocytes, it is essential to first specify this PS population to a paraxial mesoderm fate. Previous studies have shown that mesoderm populations that express cell surface markers often found on mesenchymal stem cells, CD73 and CD105, have chondrogenic potential (Hwang, Kim et al. 2006). The expression of these two cell surface markers, as well as the expression of transcription factors Meox1 and Nkx3.2 combined with the lack of expression of Nkx2.5 to monitor the emergence of a paraxial mesoderm population was used. Previous experiments in the mouse ESC model system have shown the importance of inhibiting the BMP signaling pathway in the context of FGF signaling to prevent the emergence of cardiac mesoderm and promote the development of paraxial mesoderm (Craft, Ahmed et al. 2013). […] Very few cells in untreated mesoderm conditions expressed CD73 and CD105 (7.46%, FIG. 2B). […] The changes in expression of these surface markers were accompanied by the upregulation of paraxial genes Meox1 and Nkx3.2 (FIG. 2C). […] Thus, in some cell lines, the efficiency of paraxial mesoderm specification may be improved in the presence of a Wnt pathway antagonist immediately following the PS mesoderm induction phase.

[2] = test system: day 15 mesoderm populations; test: Gene expression analyses of day 15 mesoderm populations
Protocol: FIG. 2. Characterization of paraxial mesoderm derived from hPSCs. Flow cytometric analysis of day 5 mesoderm treated with no additional factors (0 DM, no FGF), FGF, 4 μM DM, or 4 μM DM+FGF. Day 5 profiles depict KDR and PDGFRa expression, a double-positive population (gated) indicates mesoderm that has cardiac potential (20). Treatment with FGF results in less PDGFRa expression on day 5. (B) Expression of cell surface markers CD73, CD105, and PDGFR-beta on mesoderm populations on day 15 of differentiation. […] Experimental cell treatments during day 4 to day 6 include the combination of Dorsomorphin, bFGF, TGFbeta inhibitor (SB431542) in the presence or absence of the wnt pathway inhibitor IWP2. Flow cytometric analyses of CD73 and CD105, on day 15 mesoderm populations derived as indicated. (D) Gene expression analyses of day 15 mesoderm populations derived in indicated factors. Nkx2.5 is a cardiac transcription factor, Meox1 and Nkx3.2 are paraxial mesoderm and somite transcription factors. (E) Micrographs depicting 1 day old micromasses and 1 week old micromasses derived from day 15 mesoderm populations as indicated. (F) Flow cytometric analysis of cardiac troponin T (cTnT) expression in 1 week old micromasses derived from day 15 mesoderms as indicated. […] To generate chondrocytes, it is essential to first specify this PS population to a paraxial mesoderm fate. […]

[3] = test system: day 15 mesoderm populations; test: Micromass assay of day 15 mesoderm populations
Protocol: FIG. 2. Characterization of paraxial mesoderm derived from hPSCs. Flow cytometric analysis of day 5 mesoderm treated with no additional factors (0 DM, no FGF), FGF, 4 μM DM, or 4 μM DM+FGF. Day 5 profiles depict KDR and PDGFRa expression, a double-positive population (gated) indicates mesoderm that has cardiac potential (20). Treatment with FGF results in less PDGFRa expression on day 5. (B) Expression of cell surface markers CD73, CD105, and PDGFR-beta on mesoderm populations on day 15 of differentiation. […] Experimental cell treatments during day 4 to day 6 include the combination of Dorsomorphin, bFGF, TGFbeta inhibitor (SB431542) in the presence or absence of the wnt pathway inhibitor IWP2. Flow cytometric analyses of CD73 and CD105, on day 15 mesoderm populations derived as indicated. (D) Gene expression analyses of day 15 mesoderm populations derived in indicated factors. Nkx2.5 is a cardiac transcription factor, Meox1 and Nkx3.2 are paraxial mesoderm and somite transcription factors. (E) Micrographs depicting 1 day old micromasses and 1 week old micromasses derived from day 15 mesoderm populations as indicated. (F) Flow cytometric analysis of cardiac troponin T (cTnT) expression in 1 week old micromasses derived from day 15 mesoderms as indicated. […] Previous studies have shown that TGFBeta/BMP signaling is required to generate chondrocyte progenitors from paraxial mesoderm. […] Following 10 days of TGFb3 treatment (day 25 total), cultures could be switched to media containing BMP4 or maintained in TGFb3 (stage 4) in order to specify subsets of chondrocytes (articular/non-hypertrophic or growth plate/hypertrophic). To determine the chondrocyte potential of the day 15 mesoderm populations, the cells were plated at high cell density in a 20 microliter volume on tissue culture treated Petri dishes for an hour (micromass) and then the ‘spot’ was submerged/covered with media. In our initial studies, the cells were ‘spotted’ in a media containing 2% fetal bovine serum. […]

Substance: bFGF: basic fibroblast growth factor, FGF agonist
- expression patterns of PDGFRa and KDR ([1]; T5, versus untreated mesoderm, DM T4 to T6): did not change the PDGFRa/KDR population drastically
- proportion of cells expressing CD73 and CD105 ([1]; day 15, FGF day 4 to day 15, DM T4-T6): 52%
- PDGF receptor beta expression on CD73-positive cells ([1]; day 15 monolayers): also expressed the PDGF receptor beta
- Meox1 expression [2]: upregulation
- Nkx3.2 expression [2]: upregulation
- generation of cardiomyocytes (cTnT) ([3]; 1 week of micromass culture): did not generate any cardiomyocytes
- cartilage-like tissue formation ([3]; after 4 weeks of micromass culture, treatment in monolayer phase): did not maintain a cartilage tissue phenotype
- adherence and survival in micromass culture ([3]; first week of micromass culture): survived the first week of micromass culture as an adherent layer of cells
